Assay results taken from patent publication US7666905B2, “Compositions comprising hepoxilin analogs and their use in the treatment of cancer” (priority 2002, dated 2010).

Tests used:
K562 CML cells [1] = assay: 3H-thymidine incorporation in K562 CML cells; assay type: cell-based, human; settings: for effect on K562 cell growth: FIGS. 1-4
Procedure: Cell culture. Human leukemia K562 cells, obtained from the Hematology Department of the Hospital for Sick Children, were maintained as suspension cultures in RPMI 1640 medium containing 100 U/ml penicillin G, 100 μg/ml streptomycin, 10% (v/v) fetal bovine serum in a humidified atmosphere of 5% CO2 at 37° C. The ability of the cells to exclude Trypan Blue dye was used to assess cell viability.
Cells were seeded in 24 well dishes at a cell number of 5×10^4 cells/ml in starving medium (SM) of alpha Modified Eagle's Medium without fetal bovine serum (FBS) supplementation and incubated at 37° C. for 12 h. Tritiated thymidine ([^3H]-Thymidine; 25 Ci/mmol stock) was diluted in SM to a final activity of […]. The pharmacological agents tested were all diluted from their respective stocks to the desired concentration(s) with the tritiated SM. Cells receiving no drug treatments and cells treated with DMSO only were used as controls. SM was removed from the dishes, then treated with the various pharmacological agents in SM containing tritiated thymidine for 6 h at 37° C. PBT-3 was used at 2.8 μM in DMSO, (other than in dose response studies), I-BOP was used at 1.0 μM (in DMSO) and U46619 was used at 1.0 μM (in DMSO). Cells were trypsinized after 6 h and washed through Whatman GF-B/C membranes along with the supernatant. Dried membranes were deposited in scintillation vials with 8ml scintillation cocktail and the radioactivity present in the cells was counted with a liquid scintillation counter.
The effect of hepoxilin analogs on leukemia cells was examined using the CML K562 cell line. This cell line was derived from a human CML patient and is an accepted model of human chronic leukemia. The K562 cell line expresses the bcr/abl protein (Lozzio & Lozzio, 1975). It is relatively resistant to apoptosis (Martin et al., 1990), but ST1571 and other agents appear to control cell growth for a while before the cells overcome the drug effect (Weisberg & Griffin, 2000).

K562 cells [2] = assay: Nuclear fragmentation by Hoechst 33342 staining of K562 cells; assay type: cell-based, human; settings: Hoechst 33342 dye, FIG. 5 Panel B; STI571 1 μM, I-BOP 1 μM
Procedure: Quantification of apoptosis and cell viability. Induction of apoptosis and loss of cell viability after treatment with PBT-3 were assessed by staining the cells with Hoechst 33342 dye. […] Pellets were suspended with 5 μg/ml of Hoechst 33342 dye for 10 minutes at room temperature. Micrographs of the DNA-stained cells were taken with a Zeiss Axiovert 100 TV video camera. Images were captured using Axiovision version 3.0.6 and processed using Photoshop 5.0. Apoptotic cells were identified based on nuclear fragmentation and chromatin condensation around the nucleus.
Nuclear fragmentation was assessed by direct microscopy of treated cells stained with Hoechst 33342 dye.

Akt = assay: Western blot of Akt phosphorylation in K562 cells; assay type: cell-based, human; settings: FIG. 11
Procedure: (§1) Cells were seeded in 100 mm culture dishes at a cell count of 5×10^4 cells/ml in 10 ml of SM and incubated at 37° C. for 12 h. Drug treatments were: DMSO as control, 0.05 μM I-BOP in DMSO, 0.5 μM I-BOP with 2.8 μM PBT-3, or 2.8 μM PBT-3 in DMSO. These concentrations were chosen based on results generated from the cell proliferation studies using thymidine incorporation. Cells were treated with drugs as described above for 6 h. After 6 h, cells were washed with 1×PBS and scraped, pelleted by centrifugation (1500 rpm, 5 min, room temperature), and washed again and pelleted as above. 200 μl cell lysis buffer (20 mM Tris-d pH 7.4, 150 mM NaCl, 1 mM EDTA, 1 mM EGTA, 1% Tx-100, 2.5 mM […], 1 mM β-glycerophosphate, 1 mM […], 1 μg/ml leupeptin, and 1 mM PMSF) were added to resuspend each pellet followed by 30 minutes of incubation on ice. […] Protein concentration was determined using a BSA standard with a BCA protein assay kit, prior to Western blotting.
(§2) Aliquots of protein (40 μg) were heated to 90° C. in SDS sample load buffer for 5 minutes, then separated by SDS-PAGE on 10% gels and transferred to nitrocellulose membranes. […] Membranes were then washed 5× in TBS-T. Bound first antibodies were detected by HRP-anti-rabbit immunoglobulins at 1:1000 in 5% non-fat dry milk for 1 h at room temperature, washing 5× in TBS-T then with enhanced chemiluminscent autoradiography (ECL). […]

Bcl-XL = assay: Western blot of Bcl-XL expression in K562 cells; assay type: cell-based, human; settings: FIG. 11
Procedure: as §1, §2

[3] = system: normal aortic smooth muscle cells; assay: FACS analysis of apoptosis in normal aortic smooth muscle cells; assay type: cell-based; settings: FIG. 9
Procedure: (§3) Cells were seeded at 1×10^6 cells/ml and treated as above. Cells were scraped into 1×PBS, pelleted, washed, and repelleted as above. Cells were washed with PBS twice and scraped. The cells were pelleted by centrifugation at 1500 rpm, 5 min, at 23° C. and washed again. Cells were fixed with 50 μl PBS/HBSS with 2% calf serum and then with addition of 1 ml ice cold 80% ethanol. Samples were incubated on ice for 30 min and PBS/HBSS fixing was repeated and followed by adding 1 ml 70% ethanol. Centrifugation (1500 rpm, 5 min, room temperature) was performed to produce cell pellets that were resuspended by 250 μl of 0.1 mg/ml Propidium Iodide (Sigma) with 0.6% NP-40. 250 μl of 2 mg/ml RNAse was added and mixed well. Cells were incubated in the dark for 30 min at room temperature. Samples were then filtered through 85 μm Nitex mesh and the stained cells were analyzed on a flow cytometer of FACScan (Becton-Dickinson). The acquisition was done with 10,000 events per sample. The CellQuest (Becton-Dickinson) statistic analysis was performed in each individual experiment.

normal bone marrow cells = assay: FACS analysis of apoptosis in normal bone marrow cells; assay type: cell-based; settings: FIG. 8
Procedure: as §3

caspase-3 = assay: Western blot of caspase-3 activation (cleavage to 17 kDa fragment) in K562 cells; assay type: cell-based, human; settings: FIG. 14
Procedure: Western blot. […] Treatment was terminated by washing cells with ice-cold PBS buffer. Cell lysates were prepared in buffer containing 20 mM Tris-HCl pH 7.4, 150 mM NaCl, 1 mM EDTA, 1 mM EGTA, 1% Triton X-100, 2.5 mM sodium pyrophosphate, 1 mM β-glycerophosphate, 1 mM sodium orthovanadate, 1 mM PMSF and 1 μM leupeptin on ice for 60 minutes. The lysates were clarified by centrifugation at 15,000×g for 15 minutes at 4° C. Lysates were subjected to protein assay and kept at −80° C. 250 μg protein was immunoprecipitated with anti-cytochrome c antibody or anti-caspase-3 antibody coupled to protein A-agarose beads. After washing of the immunocomplexes with lysis buffer, SDS-PAGE sample loading buffer was added and the mixture was boiled for 5 minutes. After centrifugation, the supernatant was loaded onto 10-12% SDS-PAGE gel, and transferred to the Trans-Blot Nitrocellulose membrane (Bio-Rad). Protein bands on the nitrocellulose membranes were checked visually with Ponceau S-staining to assure equivalent protein loading/transfer comparing different samples. […] Bound antibodies were detected using enhanced chemilluminescence (ECL) kit and the membranes were exposed to Hyperfilm for ECL.

3T3 L1 adipocytes = assay: FACS analysis of apoptosis in normal 3T3 L1 adipocytes; assay type: cell-based; settings: FIG. 10
Procedure: as §3

[4] = system: MDA-MB 231 breast cancer cells; assay: FACS analysis of breast cancer cell line MDA-MB 231; assay type: cell-based; settings: FIG. 7
Procedure: as §3

K562 CML cells [5] = assay: DNA fragmentation (laddering) by agarose gel electrophoresis in K562 cells; assay type: cell-based, human; settings: PBT-3 2.8 μM, 24 or 72 hours, FIG. 5 Panel A
Procedure: Analysis of DNA fragmentation by gel electrophoresis. […] The samples were loaded on 2% agarose gel containing ethidium bromide (0.2 μg/ml). DNA fragments of known size were used as a reference marker. After electrophoresis at 25 V for 5 hours, the gels were photographed under trans-UV illumination.
Studies were carried out to determine if PBT-3 affected apoptosis in K562 CML cells. Cells were cultured for 24 or 72 hours in the presence of growth medium (control) or PBT-3 (2.8 μM). Apoptosis was examined by DNA laddering. Cultures were harvested, DNA was extracted with DNeasy (Qiagen) and samples were loaded on a 2% agarose gel containing 0.2 μg/ml ethidium bromide. A λ BstII DNA digest with DNA fragments of known size was used as a reference marker. After electrophoresis at 25V for 5 h, gels were photographed under trans-UV illumination.

K562 cells [6] = assay: 3H thymidine uptake in K562 cells after 2 days treatment, cell number reduction and culture without drug; assay type: cell-based, human; settings: PBT analogues 28 μM, I-BOP and STI571 1 μM, then 3 days without compounds, FIG. 13
Procedure: K562 cells (3×10^5 cells/plate) were cultured for 2 days in 1% FBS/αMEM in the presence of 28 μM PBT-3 (∘) or 1 μM STI (●) and ^3H thymidine incorporation was determined. Untreated control cells (□) and cells treated with DMSO alone (▪) were also examined (test compounds were dissolved in DMSO). Results are shown in FIG. 12, Panel A. The cell number in all dishes was reduced to that observed after two days of PBT-3 treatment (7.5×10^3/ml) and the cells were subsequently cultured for 3 days in 10% FBS in the absence of the test compounds.
The hepoxilin analogs compare very favourably in efficacy with STI571.

## O=C(O)CCC/C=C\C[C@@H]1[C@H](CNNC(=O)Nc2ccccc2)[C@H]2CC[C@@H]1O2 [SQ 29,548]
K562 CML cells [1]
  effect on K562 cell growth: neither the thromboxane receptor agonists nor the thromboxane receptor antagonist affected K562 cell growth

## O=C(O)CCC/C=C\CC1C2CCC(O2)C1/C=C/C(O)COc1ccc(I)cc1 (stereo not drawn) [I-BOP, [1S-[1α,2α(Z),3β(1E, 3S*), 4α]]-7-[3-[3-hydroxy-4-(iodophenoxy)-1-butenyl]-7-oxabicyclo[2.2.1]hept-2-yl]-5-heptenoic acid, reference compound]
K562 CML cells [1]
  effect on K562 cell growth: neither the thromboxane receptor agonists nor the thromboxane receptor antagonist affected K562 cell growth
K562 cells [2]
  apoptotic effect (fragmentation of the nucleus and chromatin condensation): No similar apoptotic effect

## CCCCC[C@H](O)/C=C/[C@@H]1[C@@H](C/C=C\CCCC(=O)O)[C@H]2CO[C@@H]1C2 [U46619]
K562 CML cells [1]
  effect on K562 cell growth: neither the thromboxane receptor agonists nor the thromboxane receptor antagonist affected K562 cell growth

## Cc1ccc(NC(=O)c2ccc(CN3CCN(C)CC3)cc2)cc1Nc1nccc(-c2cccnc2)n1 [STI571, Imatinib, reference compound]
Akt
  effect on phosphorylation of Akt: increased it
Bcl-XL
  effect on expression of the Bcl pathway (Bcl-XL): blocked the expression of the Bcl pathway (Bcl-XL)

## CCCCC/C=C\CC1CC1C(O)/C=C\C/C=C\CCCC(=O)OC [PBT-3, 10(S)-hydroxy-11,12-cyclopropyl-eicosa-5Z,8Z,14Z-trienoic acid methyl ester]
[3]
  apoptotic effect on normal aortic smooth muscle cells: no apoptotic effect
Akt
  effect on phosphorylation of Akt: blocked phosphorylation of Akt
Normal bone marrow cells
  apoptotic effect on normal bone marrow cells: no apoptotic effect
caspase-3
  time of caspase-3 activation (cleavage into a 17 kDa fragment): 6 h
3T3 L1 adipocytes
  apoptotic effect on normal (3T3 L1) adipocytes: no apoptotic effect
[4]
  synchronisation of cells (to Go phase): synchronisation effect
Bcl-XL
  effect on expression of the Bcl pathway (Bcl-XL): essentially inactive
K562 CML cells [5]
  DNA fragmentation associated with apoptosis: causes DNA fragmentation associated with apoptosis
K562 CML cells [1]; FIG. 1
  concentration of maximum effect on inhibition of K562 cell growth: 1 µg/mL
K562 CML cells [1]
  effect on K562 cell growth: inhibited growth of K562 cells
K562 cells [2]
  apoptotic effect (fragmentation of the nucleus and chromatin condensation): produced apoptotic cells

## CCCCC/C=C\CC1CC1/C=C/C(O)C/C=C\CCCC(=O)OC [PBT-2, 8(R)-hydroxy-11, 12-cyclopropyl-eicosa-5Z, 9E, 14Z-trienoic acid methyl ester]
K562 cells [6]
  effectiveness in inhibiting cell growth (rank among treatments): most effective treatment
